Entries after “also recorded” stand apart in the source; their conditions may differ. Like-named read-outs stand apart in the source and are kept apart here.
What was measured:
[1] = system: L-aminoacylase S1; assay: Substrate profile of L-aminoacylase S1; assay type: biochemical, Streptomyces hachijoensis; conditions: for Relative activity (%): compound used as substrate, L-N-acetyl-methionine evaluated to be 100
Protocol: (§1) The enzymatic activity was measured by using N-acyl derivatives of various amino acids as the substrate.

[2] = system: L-aminoacylase S2; assay: Substrate profile of L-aminoacylase S2; assay type: biochemical, Streptoverticillium rimofaciens; conditions: for Relative activity (%): compound used as substrate, L-N-acetyl-methionine evaluated to be 100
Protocol: as §1

[3] = system: L-aminoacylase S1; assay: Influence of metal ions on L-aminoacylase S1; assay type: biochemical, Streptomyces hachijoensis; conditions: for Relative activity (%): 1 mM metal salt, 37° C. one hour, substrate N-Ac-DB-DOPS, no metal added = 100%
Protocol: (§2) A potassium phosphate buffer solution (pH 7.0) of the enzyme of the present invention was treated for one hour at various temperatures, and the remaining activity was measured. As the substrate, L-threo-N-acetyl-3-(3,4-dibenzyloxyphenyl)serine (hereinafter referred to simply as N-Ac-DB-DOPS) was employed, and the reaction was conducted at 37° C. for one hour, whereupon freed L-threo-3-(3,4-dibenzyloxyphenyl)serine (hereinafter referred to simply as DB-DOPS) was measured by a ninhydrin method to determine the activity.
L-aminoacylase S1 of the present invention is added to a 0.1 M Veronal buffer solution containing a final concentration of 1 mM of various metal salts, and left to stand at 37° C. for one hour. Then, it was reacted with N-Ac-DB-DOPS as the substrate at 37° C. for 1 hour, whereby the relative activity was measured by the above-mentioned method. The one where no metal was added, was evaluated to be 100%.

[4] = system: L-aminoacylase S2; assay: Influence of metal ions on L-aminoacylase S2; assay type: biochemical, Streptoverticillium rimofaciens; conditions: for Relative activity (%): 1 mM metal salt, 37° C. 1 hour, substrate N-Ac-DB-DOPS, no metal salt added = 100%
Protocol: (§3) As the substrate, N-Ac-DB-DOPS was used, and the reaction was conducted at 37° C. for one hour, whereby freed DB-DOPS was measured by a ninhydrin method to determine the enzymatic activity.
L-aminoacylase S2 of the present invention was added to 0.1 M Veronal buffer solution containing as the final concentration 1 mM of various metal salts, and the reaction was conducted at 37° C. for 1 hour. Then, it was reacted with N-Ac-DB-DOPS as the substrate at 37° C. for one hour, whereupon the relative activity was measured by the above-mentioned method. The activity of the one where no metal salt was added, was evaluated to be 100%.

[5] = system: L-aminoacylase S2; assay: Influence of inhibitors on L-aminoacylase S2; assay type: biochemical, Streptoverticillium rimofaciens
Protocol: as §3, with “activity. As shown in the Figure, 20% is deactivated by the treatment at 60° C., and at least 70% is deactivated at 70° C. However, the enzyme is certainly stable at 50° C.” for “activity.”
The enzyme of the present invention was left to stand for one hour at 37° C. together with various inhibitors, and then reacted at 37° C. for one hour with N-Ac-DB-DOPS as the substrate, whereupon the remaining activity was measured by the above-mentioned method.

[6] = system: L-aminoacylase S1; assay: Influence of inhibitors on L-aminoacylase S1; assay type: biochemical, Streptomyces hachijoensis
Protocol: as §2, with “activity. As shown, 95% or more is deactivated by the treatment at pH 7.0 at 60° C., but the enzyme is certainly stable at a temperature of 50° C. or lower.” for “activity.”
The enzyme of the present invention is left to stand at 37° C. for one hour together with various inhibitors, and then reacted with N-Ac-DB-DOPS as the substrate at 37° C. for one hour, whereby the remaining activity was measured by the above-mentioned method.

[7] = Comparison of substrate profiles of L-aminoacylases, substrate L-N-acetyl-methionine; assay type: biochemical; set-up: key: +: active; -: inactive; conditions: Table 7
Protocol: (§4) The substrate profiles of L-aminoacylase S1 and L-aminoacylase S2 of the present invention and conventional L-aminoacylases were measured.
(§5) L-aminoacylase S1 and L-aminoacylase S2 of the present invention was compared with commercially available L-aminoacylases in their activity by using N-acetyl derivatives of D- or L-methionine and L-threo-3-(3,4-dibenzyloxyphenyl) serine as substrates.

[8] = Comparison of substrate profiles of L-aminoacylases, substrate D-N-acetyl-methionine; assay type: biochemical; set-up: key: +: active; -: inactive; conditions: Table 7
Protocol: as §4, §5

[9] = Comparison of substrate profiles of L-aminoacylases, substrate L-threo-N-acetyl-3-(3,4-dibenzyloxyphenyl)serine; assay type: biochemical; set-up: key: +: active; -: inactive; conditions: Table 7
Protocol: as §4, §5

[10] = L-aminoacylase S2, inhibitor 1 mM, 37° C. one hour, substrate N-Ac-DB-DOPS
[11] = L-aminoacylase S1, inhibitor 1 mM, 37° C. one hour, substrate N-Ac-DB-DOPS

CC(=O)NC(C)c1ccccc1 (racemic) [DL-N--acetyl-α-methylbenzylamine, DL-N-acetyl-α-methylbenzylamine]
Action of the enzyme on the substrate (in words) [1]: does not act
Relative activity (%) [1]: 0%
Action of the enzyme on the substrate (in words) [2]: does not act
Relative activity (%) [2]: 0%

[Ag+] [Ag^+]
Influence of metal ions on activity (in words) [3]: strongly inhibited
Relative activity (%) [3]: 3%
Influence of metal ions on activity (in words) [4]: prohibited; also recorded: strongly inhibited
Relative activity (%) [4]: 0%

[Ca+2] [Ca^++]
Relative activity (%) [3]: 72%
Relative activity (%) [4]: 98%

[Co+2] [Co^++]
Influence of metal ions on activity (in words) [3]: activated
Relative activity (%) [3]: 162%
Influence of metal ions on activity (in words) [4]: prohibited; also recorded: strongly inhibited
Relative activity (%) [4]: 38%

[Cu+2] [Cu^++]
Influence of metal ions on activity (in words) [3]: strongly inhibited
Relative activity (%) [3]: 14%
Influence of metal ions on activity (in words) [4]: prohibited; also recorded: strongly inhibited
Relative activity (%) [4]: 16%

CSCC[C@@H](NC(C)=O)C(=O)O [D-N--acetyl-methionine]
Relative activity (%) [1]: 0%
Relative activity (%) [2]: 0%

CC(=O)N[C@H](Cc1c[nH]c2ccccc12)C(=O)O [D-N--acetyl-tryptophan]
Relative activity (%) [1]: 0%
Relative activity (%) [2]: 0%

[Fe+2] [Fe^++]
Influence of metal ions on activity (in words) [3]: strongly inhibited
Relative activity (%) [3]: 17%
Influence of metal ions on activity (in words) [4]: prohibited; also recorded: strongly inhibited
Relative activity (%) [4]: 18%

[Hg+2] [Hg^++]
Influence of metal ions on activity (in words) [3]: strongly inhibited
Relative activity (%) [3]: 2%
Influence of metal ions on activity (in words) [4]: prohibited; also recorded: strongly inhibited
Relative activity (%) [4]: 15%

CC(=O)N[C@H](C(=O)O)c1ccc(CO)c(O)c1 [L-N--acetyl-2-(4-hydroxymethyl-3-hydroxyphenyl)glycine]
Relative activity (%) [1]: 41%
Relative activity (%) [2]: 65%

CC(=O)N[C@@H](C)C(=O)O [L-N--acetyl-alanine]
Relative activity (%) [1]: 7%
Relative activity (%) [2]: 8%

CC(=O)N[C@@H](CCCNC(=N)N)C(=O)O [L-N--acetyl-arginine]
Relative activity (%) [1]: 85%
Relative activity (%) [2]: 61%

CC(=O)N[C@@H](CCC(=O)O)C(=O)O [L-N--acetyl-glutamic acid]
Relative activity (%) [1]: 19%
Relative activity (%) [2]: 18%

CC(=O)N[C@@H](Cc1c[nH]cn1)C(=O)O [L-N--acetyl-histidine]
Relative activity (%) [1]: 41%
Relative activity (%) [2]: 36%

CC(=O)N[C@@H](CC(C)C)C(=O)O [L-N--acetyl-leucine]
Relative activity (%) [1]: 76%
Relative activity (%) [2]: 71%

CSCC[C@H](NC(C)=O)C(=O)O [L-N--acetyl-methionine, L-N-acetyl-methionine]
Relative activity (%) [1]: 100%
Relative activity (%) [2]: 100%

CC(=O)N[C@@H](Cc1ccccc1)C(=O)O [L-N--acetyl-phenylalanine]
Relative activity (%) [1]: 197%
Relative activity (%) [2]: 286%

CC(=O)N[C@@H](Cc1c[nH]c2ccccc12)C(=O)O [L-N--acetyl-tryptophan]
Relative activity (%) [1]: 80%
Relative activity (%) [2]: 98%

CC(=O)N[C@@H](Cc1ccc(O)cc1)C(=O)O [L-N--acetyl-tyrosine]
Relative activity (%) [2]: 137%

CC(=O)N[C@H](C(=O)O)C(C)C [L-N--acetyl-valine]
Relative activity (%) [1]: 42%
Relative activity (%) [2]: 35%

CSCC[C@H](NC(=O)c1ccccc1)C(=O)O [L-N--benzoyl-methionine]
Relative activity (%) [2]: 10%

CSCC[C@H](NC=O)C(=O)O [L-N--formyl-methionine]
Relative activity (%) [1]: 4%
Relative activity (%) [2]: 5%

N[C@@H](CS)C(=O)O [L-cysteine]
Influence of inhibitors on activity (in words) ([5]; L-aminoacylase S2): strongly inhibited
Remaining activity (%) [5, 10]: 11%
Influence of inhibitors on activity (in words) ([5]; L-aminoacylase S2, listed as cysteine): inhibited

CC(=O)N[C@H](C(=O)O)[C@H](O)c1ccc(OCc2ccccc2)c(OCc2ccccc2)c1 [L-threo-N-acetyl-3-(3,4-dibenzyloxyphenyl)serine]
Relative activity (%) [1]: 14%
Relative activity (%) [2]: 20%

[Mg+2] [Mg^++]
Relative activity (%) [3]: 107%
Relative activity (%) [4]: 95%

[Mn+2] [Mn^++]
Relative activity (%) [3]: 61%
Influence of metal ions on activity (in words) [4]: prohibited; also recorded: strongly inhibited
Relative activity (%) [4]: 31%

O=C(O)CI [Monoiodoacetic acid]
Influence of inhibitors on activity (in words) [6]: not inhibited
Remaining activity (%) [6]: 94%
Influence of inhibitors on activity (in words) [5]: strongly inhibited
Remaining activity (%) [5]: 3%

CC(=O)N[C@H]1C(O)O[C@H](CO)[C@@H](O)[C@@H]1O (stereo partly drawn) [N--acetyl-D-glucosamine, N-acetyl-D-glucosamine]
Action of the enzyme on the substrate (in words) [1]: does not act
Relative activity (%) [1]: 0%
Action of the enzyme on the substrate (in words) [2]: does not act
Relative activity (%) [2]: 0%

CC(=O)NCC(=O)O [N--acetyl-glycine]
Relative activity (%) [1]: 2%
Relative activity (%) [2]: 2%

[Ni+2] [Ni^++]
Influence of metal ions on activity (in words) [3]: strongly inhibited
Relative activity (%) [3]: 7%
Influence of metal ions on activity (in words) [4]: prohibited; also recorded: strongly inhibited
Relative activity (%) [4]: 33%

[Zn+2] [Zn^++]
Relative activity (%) [3]: 102%
Relative activity (%) [4]: 71%

O=C(O)c1cc[c]([Hg][Cl])cc1 [p-chloromercuribenzoate]
Influence of inhibitors on activity (in words) ([6]; L-aminoacylase S1): inhibited
Remaining activity (%) [6, 11]: 2%
Influence of inhibitors on activity (in words) ([5]; L-aminoacylase S2): strongly inhibited
Remaining activity (%) [5, 10]: 0%

OCCS [β-mercaptoethanol]
Remaining activity (%) [6, 11]: 76%

B1: Acylase I: commercially available aminoacylase (hog kidney), manufactured by Miles Laboratory (protein, UniProt P37111 2-407, looked up)
Aminoacylase-1: ASKGREGEHPSVTLFRQYLRIRTVQPEPDYGAAVAFLEERARQLGLGCQKVEVVPGHVVTVLTWPGTNPTLSSILLNSHTDVVPVFKEHWSHDPFEGFKDADGYIYGRGAQDMKCVSIQYLEAVRRLKVEGHHFPRTIHMTFVPDEEVGGHQGMELFVKRPEFQALRAGFALDEGLASPTDAFTVFYSERSPWWLRVTSTGKPGHGSRFIEDTAAEKLHKVINSILAFREKEKQRLQSNQLKPGAVTSVNLTMLEGGVAYNVVPATMSACFDFRVAPDVDLKAFEEQLQSWCQAAGEGVTFEFVQKWMETQVTSTDDSDPWWAAFSGVFKDMKLALELEICPASTDARYIRAAGVPALGFSPMNHTPVLLHDHDERLHEAVFLRGVDIYTQLLSALASVPALPSES
Activity on substrate L-N-acetyl-methionine [7]: +
Activity on substrate D-N-acetyl-methionine [8]: -
Activity on substrate L-threo-N-acetyl-3-(3,4-dibenzyloxyphenyl)serine [9]: -

— US4745067A, “L-aminoacylases” (Microbial Chemistry Research Foundation, priority 1985, dated 1988)
